# Measured values reported in the METLIN SMRT retention time set (Domingo-Almenara et al. 2019).
# Assay: gradient 5% acetonitrile 3 min, to 50% in 2 min, to 85% in 15 min, held 3 min, 100 µL/min
# Conditions: column: Zorbax Extend-C18 2.1 x 50 mm; eluents: water / acetonitrile, 0.1% formic acid
# Procedure, shortened: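 The mobile phases were water and acetonitrile, each with 0.1% formic acid, pumped at 100 μL/min through a Zorbax Extend-C18 column (2.1 × 50 mm, 1.8 μm). Pure standards were injected as mixtures of ~100 molecules and detected by a quadrupole time-of-flight mass spectrometer in positive and negative ionization mode. Retention time came from computationally picked adduct peaks, each inspected by hand.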
row,Structure (SMILES),RP-LC retention time
1,Nc1nc(N2CCCC2)nc2ccccc12,592 s
2,CC1(C)[C@H]2CC[C@](C)(C2)[C@H]1NS(=O)(=O)c1ccc(F)cc1,1140 s
3,COc1cc(NC(=O)Cc2csc3nc(-c4ccc(C)c(C)c4)cn23)cc(OC)c1,772 s
4,O=C(C1CCN(S(=O)(=O)c2ccc(-c3noc(COc4ccccc4)n3)cc2)CC1)N1CCCC1,961 s
5,CCCS(=O)(=O)N1CCO[C@@H](COC)[C@@H]1c1ccccc1,850 s
6,CCOc1ccccc1-n1ccn(Cc2nc(-c3ccc(C(C)(C)C)cc3)no2)c(=O)c1=O,699 s
7,CCC(C(=O)Nc1ccc(OC)c(OC)c1)n1cnc2nc3c(cc2c1=O)CCCC3 (stereo unspecified),720 s
8,Cc1ccc(CNC(=O)C2CCN(S(=O)(=O)c3ccc4c(c3)CCCC(=O)N4)CC2)o1,710 s
9,CC(Cc1ccco1)NC(=O)c1cccn(C)c1=O (stereo unspecified),649 s
10,CCCCN(C)c1nc(-c2ccc(C)cc2)nc2ccccc12,819 s
11,CC(C)CC(=O)Nc1cc2c(cc1S(=O)(=O)c1ccccc1)n(C)c(=O)n2C,786 s
12,Cc1cccc(NC(=O)N2CCN(c3cc(C)nc(N4CCCC4)n3)CC2)c1,680 s
13,CCOC(=O)CNC(=O)NCc1cccn1Cc1ccc(Cl)cc1,843 s
14,CCOC(=O)c1c(C)oc2nc(C)nc(NCCCN3CCN(c4ccc(F)cc4)CC3)c12,738 s
15,Cc1ccc(C)c(NC(=O)c2cnc(-c3ccc(F)cc3)nc2-c2ccncc2)c1,943 s
16,Cc1cc(C(=O)N2CCCCC2)c2c(=O)n(Cc3ccc4nonc4c3)c(=O)n(C)c2n1,902 s
17,O=c1c2cc(-c3cccs3)nn2cnn1Cc1nc(-c2ccc(Cl)cc2)no1,1150 s
18,Cc1cccc2nnc(N3CCN(C(=O)c4ccc5c(c4)OCO5)CC3)n12,556 s
19,CCOc1cc(C2C(C(=O)N3CCCCC3)=C(C)NC3=C2C(=O)CCC3)ccc1OC(C)=O (stereo unspecified),710 s
20,O=C(c1cc(Cl)ccc1Cl)N1CCN(CC(O)c2cccs2)CC1 (stereo unspecified),581 s
21,CN(C)CCN(C(=O)CN1C(=O)c2ccccc2C1=O)c1nc2ccc(Cl)cc2s1,616 s
22,Cc1ccc(NC(=O)c2cn3c(n2)CCCC3)c(C)c1,644 s
23,Cc1nc(-c2ccnc(N3CCCC3)c2)no1,572 s
24,O=c1ccn(-c2cccc(F)c2)nc1-c1nc(-c2ccc(F)c(Cl)c2)no1,984 s
25,COc1cccc(NC(=O)Cn2c(N3CCCCC3)nc(C)cc2=O)c1,658 s
26,O=C(Cc1c[nH]c2ccccc12)N1CCN(c2cc(-c3cccs3)[nH]n2)CC1,756 s
27,Cc1oc(-c2[nH]ncc2C(=O)N2CCOCC2)cc1S(=O)(=O)N1CCC(C)CC1,703 s
28,CCn1cnc(S(=O)(=O)N2CCCC(C(=O)Nc3ccc(F)cc3)C2)c1 (stereo unspecified),726 s

row,Structure (SMILES),RP-LC retention time
1,CC(C)C(=O)NCCc1csc(C2CCCN(C(=O)C(C)(C)C)C2)n1 (stereo unspecified),734 s
2,CCOC(=O)N1CCN(c2cc(C(=O)O)c3cc(NC(=O)CC)ccc3n2)CC1,553 s
3,CCn1cc(C)c(C(=O)O)c1CC(=O)N1CCC(c2ccccc2)C1 (stereo unspecified),802 s
4,Cn1cccc1-c1noc(C2CCN(C(=O)c3ccoc3)C2)n1 (stereo unspecified),784 s
5,CCN1C(=O)c2cc(C(=O)Nc3ccc(Cl)cc3)nn2CC1(C)C(=O)NC1CCCC1 (stereo unspecified),860 s
6,CCN(CC)C(=O)c1sc2ncn(CC(=O)N3CCCCC3C)c(=O)c2c1C (stereo unspecified),752 s
7,COCCN1C(=O)CCc2cc(NC(C)=O)ccc21,604 s
8,CCOc1ccc(NC(=O)C2CCCN2S(=O)(=O)c2cc3c(cc2C)NC(=O)CO3)cc1 (stereo unspecified),770 s
9,Cc1cccc(CC(=O)N2C[C@@H]3C[C@H]2C[C@@H]3NS(=O)(=O)c2cccs2)c1,815 s
10,CCOc1ccc(CC(=O)N2CCCN(c3cc(-c4ccc(Br)cc4)[nH]n3)CC2)cc1OCC,842 s
11,O=c1c2cc(-c3ccc4c(c3)OCO4)nn2ccn1Cc1nc(-c2cccc(C(F)(F)F)c2)no1,1110 s
12,COC(=O)C[C@@](O)(CCC(C)(C)O)C(=O)O[C@@H]1C(OC)=C[C@]23CCCN2CCc2cc4c(cc2[C@@H]13)OCO4,612 s
13,Cc1nccn1-c1ccc(=O)n(CCNC(=O)Cn2nc(-c3ccc(F)cc3)ccc2=O)n1,780 s
14,Cc1cnc(C(=O)N[C@@H]2CCC[C@@H]2C(=O)NC2CCCC2)cn1,638 s
15,COc1ccc2c(c1)C1(CCN(S(=O)(=O)c3ccc(F)c(F)c3)C1)C(=O)N2C (stereo unspecified),964 s
16,COc1cn(CC(=O)Nc2ccc(C)c(Cl)c2)c(CN2CCN(C(C)=O)CC2)cc1=O,595 s
17,O=C(NC1CCCC1)N1CCC(OC2CCN(Cc3ccccc3)CC2)CC1,634 s
18,COC(=O)C(C)Sc1ncnc2c1oc1ccccc12 (stereo unspecified),906 s
19,Cc1ccc(C(=O)NCCc2c[nH]c3ccc(Cl)cc23)cc1-n1nnc2cccnc21,903 s
20,COc1ccc(NC(=O)C2CCCN2S(=O)(=O)c2ccc3c(c2)CCCC(=O)N3)cc1Cl (stereo unspecified),787 s
21,CCc1ccc(C(O)CN2CCN(c3ccccn3)CC2)cc1 (stereo unspecified),572 s
22,Cc1ccc(NC(=O)N2CCN(c3cc(C)nc(N4CCCC4)n3)CC2)cc1,677 s
23,O=C(C1CCN(S(=O)(=O)N2CCOCC2)CC1)N1CCC(Cc2nc(C3CCOCC3)no2)CC1,681 s
24,COCCN1C(=O)[C@H]2CN(Cc3ccc(C)c(C)c3)C[C@H]2C1=O,577 s
25,N#Cc1ccc(CN2C[C@@H](CO)[C@H](c3nc(C4CC4)no3)C2)cc1,600 s
26,Cc1cc(-c2ccc(S(=O)(=O)N3CCC(C(=O)NCC4CC4)CC3)o2)n[nH]1,702 s
27,CCCCCNC(=O)c1ccc2c(c1)CCCN2S(C)(=O)=O,846 s

# Results, then the compound that gave them:
row,RP-LC retention time,Structure (SMILES)
1,1050 s,O=C(NCc1cccc(Cl)c1)c1ccc(-c2nc3cccnc3n2C2CCCCC2)cc1
2,880 s,Cc1cc(-c2nc3ccccc3s2)ccc1N
3,997 s,O=C([C@@H]1C[C@H](F)CN1S(=O)(=O)c1ccc(F)c(Cl)c1)N1CCc2ccccc2C1
4,708 s,COC(=O)c1cccc(NC(=O)c2c[nH]c3ncccc23)c1
5,1130 s,CCOC(=O)C1=CN(Cc2ccccc2)C=C(C(=O)OCC)C1c1ccccc1
6,883 s,O=C(NCCC1CCN(S(=O)(=O)c2ccccc2)CC1)Nc1ccc(F)cc1
7,681 s,CC(C)Cn1c(=O)c(-c2ccc(C(=O)NCc3ccncc3)cc2)nc2ccccc21
8,842 s,CCn1ncc(NC(=O)c2ccccc2F)c(N2CCOCC2)c1=O
9,860 s,CC(C)c1ccc(N2C(=O)CN(S(C)(=O)=O)CC2(C)C(=O)NCc2ccccc2)cc1 (stereo unspecified)
10,1080 s,O=C(NCc1cccc(Cl)c1)C1CCCN(c2nccnc2Sc2ccccc2)C1 (stereo unspecified)
11,657 s,O=C1Cc2cc(NC(=O)NCCCc3ccccc3)ccc2N1
12,721 s,CCC(C)NC(=O)C1CCN(c2cnn(Cc3ccccc3)c(=O)c2)CC1 (stereo unspecified)
13,835 s,COc1ccc(C2(C(=O)N3CCCC(c4nc(-c5ccc(NC(C)=O)cc5)no4)C3)CC2)cc1 (stereo unspecified)
14,1260 s,Cc1ccc(Sc2nccnc2N2CCC(C(=O)Nc3cccc(Br)c3)CC2)cc1
15,1410 s,CCN(C(=O)Nc1ccccc1[N+](=O)[O-])c1nc(-c2ccc(C)cc2)cs1
16,566 s,Cc1nnc(N2CCCC(C(=O)NCc3ccccn3)C2)c2nn(-c3ccccc3)c(C)c12 (stereo unspecified)

row,RP-LC retention time,Structure (SMILES)
1,1170 s,Cc1ccc(Cn2c(=O)c(N3CCCC(C(=O)NCc4cccs4)C3)nc3ccccc32)cc1 (stereo unspecified)
2,976 s,COc1ccc(-c2ccc(C(=O)N3CCCc4ccccc43)o2)c([N+](=O)[O-])c1
3,968 s,O=C(Nc1ccc(SCc2nnc(-c3ccccc3)o2)cc1)c1cccs1
4,709 s,O=C(Nc1nnc(C2CC(=O)N(c3ccccc3)C2)o1)c1ccccc1Br (stereo unspecified)
5,1240 s,CCn1c(=O)c(N2CCCC(C(=O)N3CCN(c4cccc(Cl)c4)CC3)C2)nc2ccccc21 (stereo unspecified)
6,918 s,COC(=O)c1cccc(Nc2c(-c3cccc(Br)c3)nc3cnccn23)c1
7,1040 s,CCc1cc(C(=O)Nc2ccc(OC)c(Cl)c2)nc2ccnn12
8,637 s,COC[C@@H]1CN(S(=O)(=O)c2ccccc2C)C[C@H]1c1ccccn1
9,980 s,O=C(Nc1cccc(-c2ccccc2)c1)N1CCN(C(=O)Nc2cccc(-c3ccccc3)c2)CC1
10,880 s,Cc1cccc(-n2c(N3CCCC(C(=O)NCc4ccccc4)C3)nc3ccsc3c2=O)c1 (stereo unspecified)
11,658 s,Cc1c(NC(=O)c2cccc3c2-c2ccccc2C3=O)c(=O)n(-c2ccccc2)n1C
12,1040 s,COc1ccc(-c2nc(CN3C(=O)C(O)(c4cccc(F)c4)c4ccccc43)c(C)o2)cc1 (stereo unspecified)
13,698 s,O=C(c1ccc2c(c1)N(Cc1ccccc1)CCS2)N1CCN(c2ccccn2)CC1
14,593 s,Cc1ccc(NC(=O)N2CCCC2c2nc(-c3ccccc3C)no2)cc1C (stereo unspecified)
15,908 s,Cc1nn(CC(=O)NCCc2c[nH]c3ccc(Cl)cc23)c(=O)c2c(C)n(-c3ccccc3)nc12
